Assay results taken from patent publication US6455540B1, “Methods of use of quinolone compounds against anaerobic pathogenic bacteria” (priority 1999, dated 2002).
Values after ≈ are worked out from the molar mass of the structure shown.

Experiments:
Test in all cases: Agar dilution MIC
Veillonella spp. = assay type: cell-based; details: Veillonella, 24 isolates
Porphyromonas macaccae = assay type: cell-based; details: Porphyromonas, 13 isolates
[1] = test system: Prevotella buccae-oris group; assay type: cell-based; details: Prevotella, 22 isolates
Fusobacterium russii = assay type: cell-based; details: Fusobacterium russii
Porphyromonas canoris = assay type: cell-based; details: Porphyromonas canoris, 10 isolates
[2] = test system: Anaerobiospirillum thomasii; assay type: cell-based; details: Anaerobiospirillum thomasii, 13 isolates
[3] = test system: Peptostreptococcus micros; assay type: cell-based; details: 12 isolates
Porphyromonas spp. = assay type: cell-based, Porphyromonas cangingivalis, cansulci, circumdentaria, levii; details: Porphyromonas, 11 isolates
[4] = test system: Peptostreptococcus magnus; assay type: cell-based; details: 13 isolates
[5] = test system: Anaerobiospirillum succiniciproducens; assay type: cell-based; details: 3 isolates
Clostridium dfficile = assay type: cell-based, Clostridium difficile; details: Clostridium, read-out: Minimal Inhibitory Concentration 90% (MIC90), 14 isolates
Bilophila wadsworthia = assay type: cell-based; details: 16 isolates, agar supplemented with pyruvate
[6] = test system: Prevotella denticola/loeschii group; assay type: cell-based; details: Prevotella denticola, read-out: Minimal Inhibitory Concentration 50% (MIC50); 6 isolates
Actinomyces israelii = assay type: cell-based; details: 6 isolates
Bacteroides ureolyticus = assay type: cell-based; details: 17 isolates
[7] = test system: Peptostreptococcus prevotii; assay type: cell-based; details: 9 isolates
[8] = test system: Fusobacterium spp group 1; assay type: cell-based; details: Fusobacterium, 19 isolates
Clostridium ramosum = assay type: cell-based; details: 10 isolates
Prevotella intermedia = assay type: cell-based; details: Prevotella intermedia, 11 isolates
Fusobacterium varium = assay type: cell-based; details: 17 isolates
[9] = test system: Peptostreptococcus asaccharolyticus; assay type: cell-based; details: Peptoniphilus asaccharolyticus, 11 isolates
[10] = test system: Prevotella heparinolytica; assay type: cell-based; details: Prevotella heparinolytica, 16 isolates
[11] = test system: Actinomyces odontolyticus; assay type: cell-based; details: Schaalia odontolytica, 10 isolates
[12] = test system: Prevotella melaninogenica; assay type: cell-based; details: Prevotella melaninogenica, 12 isolates
[13] = test system: Porphyromonas asaccharolyticus; assay type: cell-based, Porphyromonas asaccharolytica; details: Porphyromonas, 11 isolates
Prevotella bivia = assay type: cell-based; details: Prevotella bivia, 21 isolates
Porphyromonas gingivalis = assay type: cell-based; details: Porphyromonas gingivalis, 13 isolates
[14] = test system: Clostridium clostridioforme; assay type: cell-based; details: Clostridium, 11 isolates
Clostridium inocuum = assay type: cell-based, Clostridium innocuum; details: Clostridium, 11 isolates
Bacteroides tectum = assay type: cell-based; details: Bacteroides pyogenes, 22 isolates
[15] = test system: Fusobacterium spp. group 2; assay type: cell-based, Fusobacterium mortiferum, necrogenes, ulcerans; details: 12 isolates
Bacteroides gracilis = assay type: cell-based, Bacteroides gracilis (Campylobacter gracilis); details: 11 isolates
[16] = read-out: Minimal Inhibitory Concentration 90% (MIC90)
[17] = read-out: Minimal Inhibitory Concentration 50% (MIC50)

What does the source list for `CCC[C@@H]1C[C@@H](C(=O)N[C@@H]([C@H]2O[C@H](SC)[C@H](O)[C@@H](O)[C@H]2O)[C@H](C)Cl)N(C)C1` [Clindamycin]?
MIC90 (Veillonella spp.; [16]): 2 µg/mL (≈ 4.71 µM); MIC50 (Veillonella spp.; [17]): 0.06 µg/mL (≈ 0.141 µM); MIC50 (Porphyromonas macaccae; [17]): ≤ 0.015 µg/mL; MIC90 (Porphyromonas macaccae; [16]): ≤ 0.015 µg/mL; MIC90 [1, 16]: 0.03 µg/mL (≈ 0.0706 µM); MIC50 [1, 17]: ≤ 0.015 µg/mL; MIC50 (Fusobacterium russii; [17]): 0.03 µg/mL (≈ 0.0706 µM); MIC90 (Fusobacterium russii; [16]): 0.06 µg/mL (≈ 0.141 µM); MIC50 (Porphyromonas canoris; [17]): ≤ 0.015 µg/mL; MIC90 (Porphyromonas canoris; [16]): ≤ 0.015 µg/mL; MIC50 [2, 17]: 32 µg/mL (≈ 75.3 µM); MIC90 [2, 16]: > 32 µg/mL; Minimal Inhibitory Concentration Range [3]: 0.06 to 0.125 µg/mL; MIC50 ([3]; Parvimonas micra, read-out: Minimal Inhibitory Concentration 50% (MIC50)): 0.125 µg/mL (≈ 0.294 µM); MIC90 ([3]; Parvimonas micra, read-out: Minimal Inhibitory Concentration 90% (MIC90)): 0.125 µg/mL (≈ 0.294 µM); MIC50 (Porphyromonas spp.; [17]): ≤ 0.015 µg/mL; MIC90 (Porphyromonas spp.; [16]): ≤ 0.015 µg/mL; Minimal Inhibitory Concentration Range [4]: 0.06 to 2 µg/mL; MIC50 ([4]; Finegoldia magna, read-out: Minimal Inhibitory Concentration 50% (MIC50)): 0.5 µg/mL (≈ 1.18 µM); MIC90 ([4]; Finegoldia magna, read-out: Minimal Inhibitory Concentration 90% (MIC90)): 2 µg/mL (≈ 4.71 µM); Minimal Inhibitory Concentration Range [5]: 32 µg/mL; MIC50 ([5]; Anaerobiospirillum succiniciproducens, read-out: Minimal Inhibitory Concentration 50% (MIC50)): 32 µg/mL (≈ 75.3 µM); MIC90 (Clostridium dfficile): > 32 µg/mL; Minimal Inhibitory Concentration Range (Bilophila wadsworthia): 0.25 to 2 µg/mL; MIC90 (Bilophila wadsworthia; Bilophila wadsworthia, read-out: Minimal Inhibitory Concentration 90% (MIC90)): 2 µg/mL (≈ 4.71 µM); MIC50 (Bilophila wadsworthia; Bilophila wadsworthia, read-out: Minimal Inhibitory Concentration 50% (MIC50)): 0.5 µg/mL (≈ 1.18 µM); MIC50 [6]: ≤ 0.015 µg/mL; Minimal Inhibitory Concentration Range (Actinomyces israelii): 0.06 to 0.25 µg/mL; MIC50 (Actinomyces israelii; Actinomyces israelii, read-out: Minimal Inhibitory Concentration 50% (MIC50)): 0.06 µg/mL (≈ 0.141 µM); Minimal Inhibitory Concentration Range (Bacteroides ureolyticus): 0.03 to 0.5 µg/mL; MIC90 (Bacteroides ureolyticus; Campylobacter ureolyticus, read-out: Minimal Inhibitory Concentration 90% (MIC90)): 0.25 µg/mL (≈ 0.588 µM); MIC50 (Bacteroides ureolyticus; Campylobacter ureolyticus, read-out: Minimal Inhibitory Concentration 50% (MIC50)): 0.06 µg/mL (≈ 0.141 µM); Minimal Inhibitory Concentration Range [7]: 0.030 to 32 µg/mL; MIC50 ([7]; Anaerococcus prevotii, read-out: Minimal Inhibitory Concentration 50% (MIC50)): 1 µg/mL (≈ 2.35 µM); MIC50 ([8]; GROUP1, read-out: Minimal Inhibitory Concentration 50% (MIC50)): 0.06 µg/mL (≈ 0.141 µM); MIC90 ([8]; GROUP1, read-out: Minimal Inhibitory Concentration 90% (MIC90)): 0.125 µg/mL (≈ 0.294 µM); Minimal Inhibitory Concentration Range (Clostridium ramosum): 0.25 to 4 µg/mL; MIC50 (Clostridium ramosum; Thomasclavelia ramosa, read-out: Minimal Inhibitory Concentration 50% (MIC50)): 2 µg/mL (≈ 4.71 µM); MIC90 (Clostridium ramosum; Thomasclavelia ramosa, read-out: Minimal Inhibitory Concentration 90% (MIC90)): 2 µg/mL (≈ 4.71 µM); MIC90 (Prevotella intermedia; [16]): ≤ 0.015 µg/mL; MIC50 (Prevotella intermedia; [17]): ≤ 0.015 µg/mL; Minimal Inhibitory Concentration Range (Fusobacterium varium): 0.06 to 16 µg/mL; MIC50 (Fusobacterium varium; Fusobacterium varium, read-out: Minimal Inhibitory Concentration 50% (MIC50)): 4 µg/mL (≈ 9.41 µM); MIC90 (Fusobacterium varium; Fusobacterium varium, read-out: Minimal Inhibitory Concentration 90% (MIC90)): 16 µg/mL (≈ 37.6 µM); MIC50 [9, 17]: 0.06 µg/mL (≈ 0.141 µM); MIC90 [9, 16]: > 32 µg/mL; MIC90 [10, 16]: ≤ 0.015 µg/mL; MIC50 [10, 17]: ≤ 0.015 µg/mL; MIC90 [11, 16]: 0.25 µg/mL (≈ 0.588 µM); MIC50 [11, 17]: 0.125 µg/mL (≈ 0.294 µM); MIC90 [12, 16]: 0.5 µg/mL (≈ 1.18 µM); MIC50 [12, 17]: ≤ 0.015 µg/mL; MIC50 [13, 17]: ≤ 0.015 µg/mL; MIC90 [13, 16]: > 32 µg/mL; MIC90 (Prevotella bivia; [16]): 0.03 µg/mL (≈ 0.0706 µM); MIC50 (Prevotella bivia; [17]): ≤ 0.015 µg/mL; MIC50 (Porphyromonas gingivalis; [17]): ≤ 0.015 µg/mL; MIC90 (Porphyromonas gingivalis; [16]): ≤ 0.015 µg/mL; MIC90 [14, 16]: 2 µg/mL (≈ 4.71 µM); MIC50 [14, 17]: 0.06 µg/mL (≈ 0.141 µM); MIC90 (Clostridium inocuum; [16]): > 32 µg/mL; MIC50 (Clostridium inocuum; [17]): 0.5 µg/mL (≈ 1.18 µM); MIC90 (Bacteroides tectum; [16]): ≤ 0.015 µg/mL; MIC50 (Bacteroides tectum; [17]): ≤ 0.015 µg/mL; Minimal Inhibitory Concentration Range [15]: 0.06 to 8 µg/mL; MIC50 ([15]; Fusobacterium, read-out: Minimal Inhibitory Concentration 50% (MIC50)): 1 µg/mL (≈ 2.35 µM); MIC90 ([15]; Fusobacterium, read-out: Minimal Inhibitory Concentration 90% (MIC90)): 8 µg/mL (≈ 18.8 µM); Minimal Inhibitory Concentration Range (Bacteroides gracilis): 0.03 to 8 µg/mL; MIC90 (Bacteroides gracilis; Campylobacter gracilis, read-out: Minimal Inhibitory Concentration 90% (MIC90)): 2 µg/mL (≈ 4.71 µM); MIC50 (Bacteroides gracilis; Campylobacter gracilis, read-out: Minimal Inhibitory Concentration 50% (MIC50)): 0.25 µg/mL (≈ 0.588 µM)
